Values of other authors as cited in US7851459B2, “Methods for diluting water-stabilized antimicrobial organosilane compositions” (Vitec Speciality Chemicals Limited, priority 2007, dated 2010).

Settings: mixture of organosilane and water

In the case of `CCCCCCCCCCCCCCCCCC[N+](C)(C)CCC[Si](OC)(OC)OC.[Cl-]` [3-(trimethoxysilyl)propyl-dimethyloctadecyl ammonium chloride], the “time until mixture with water begins to lose effectiveness” value is given as “four to eight”.
